Results published in patent US20260151384A1, “ISOQUINOLINE DERIVATIVES AS PROTEIN DEGRADERS, E7 DEGRADERS, ANTIVIRALS, TUMOR THERAPEUTICS AND IMMUNE SUPPRESSIVES” (priority 2022, published 2026).

Key:
SARS-CoV-2 [1] = experiment: microbe, parasite or virus in culture; assay type: cell-based; conditions: 1.25 μM, n4
[2] = tested on: p38, JNK1, ERK1/2, PKC, or Src-like kinases; conditions: cited from earlier work
[3] = Pharmacokinetics of VSP034 and VSP035, oral liposomal formulation; assay type: in vivo, female Sprague-Dawley rats; conditions: 100 mg/kg oral gavage; Student's t test, significant
Method: The pharmacokinetic parameters of VSP034 and VSP035 encapsulated as liposomal formulation were assessed after the administration of a single 100 mg/kg dose by oral gavage to 6 female Sprague-Dawley rats weighting 250 grams (±25g). The animals were randomized into two experimental groups (Groups 1 and 2), each composed of 3 rats. Rats belonging to group 1 were administered with VSP034 and rats belonging to group 2 were administered with VSP035. Blood was collected at baseline and 15 min, 30 min, 1, 2, 4, 6, 8, and 24 hours after the oral gavage. The rats were sacrificed 24 hours after the dosing. Blood was collected at each timepoint from the caudal vein, with the exception of the last collection (24 hours), which was performed by intracardiac puncture at the moment of sacrifice under isoflurane anesthesia. The animals were weighted immediately before the dosing to assess the proper dose and carefully monitored during the experiment. […] The main pharmacokinetic parameters (half-life, t1/2; time to maximum plasma concentration, Tmax; maximum plasma concentration, Cmax, AUC Extrapolated to Infinity, AUC0-inf; mean residence time, MRT; Apparent Volume of Distribution During Terminal Phase, VZ/F; and apparent oral clearance, CL/F) were calculated from the coefficients and exponents of the best-fits by using standard formulae.

SARS-CoV-2 [4] = assay type: cell-based
SARS-CoV-2 [5] = experiment: SARS-CoV-2 antiviral activity, mono treatment or combinations, Vero E6 cells (Test 18); assay type: cell-based; conditions: 10, 5, 2.5, 1.25, 0.625 μM; FIG. 10
Excerpt: SARV-CoV-2 antiviral activity of VSP035 from mono treatment, or in combination with various pharmacological drug substances at various concentrations shown by the bars from left to the right. Y axis % Inhibition. Due to lethal concentrations for Vero E6 cells, dose dependency is visible at non-lethal doses only (median of multiple experiments n4 is shown); Concentrations (left to right) Compounds and respective assay concentrations in μM are, “constant” means same concentration for the series (X axis, numbers for series): (FIG. 10).

HPV16 E7 protein = HPV16 E7 protein (Human papillomavirus type 16, UniProt P03129); experiment: Western blot of E7 steady state level in CaSki cells; assay type: cell-based; conditions: 10 μM, up to 24 hours
Chain of HPV16 E7 protein (P03129 whole entry): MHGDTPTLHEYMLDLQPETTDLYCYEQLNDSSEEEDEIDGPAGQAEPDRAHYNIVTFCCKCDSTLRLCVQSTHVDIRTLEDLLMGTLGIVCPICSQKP
Method: Reagents for Extract preparation and Western Blotting: Extraction Buffer: 2.5× (Tris 0.25M pH6.8, Glycerol 50%, SDS 10%), Gels: 4-12% gradient gels (Bolt® 4-12% Bis-Tris Plus Gel). MES Buffer: 50 mM MES, 50 mM Tris Base, 0.1% SDS, 1 mM EDTA, pH 7.3, Blotting membrane: Nitrocelulose 0.2 μm (Whatman Protran #10401394), 3MM filter paper (e.g. Whatman 3MM Chr, #3030917). Western Detection Reagents: WB Wash Buffer 1× (TBET): 20 mM Tris, 150 mM NaCl, 0.125% Tween20, pH 7.8; skim-milk powder (less than 0.15% fat content). Phosphate buffered saline (PBS) 1×: prepared as 1 L add 8 g sodium chloride (NaCl), 0.2 g potassium chloride (KCl), 1.44 g sodium phosphate, dibasic (Na2HPO4) and 0.24 g potassium phosphate, monobasic (KH2PO4) to 1 L dH2O, pH adjusted to 7.2.
B) For cells in cell culture the following procedure for the preparation of a total cell extract is used. Freshly seeded cells are grown for 24 hours to obtain 65-75% confluency (corresponds for CaSki cells to a plating of approx. 2×10^6 cells/10 cm Ø cell culture dish). Cell culture dishes with medium are out on ice for 5 minutes. […]
Dilute secondary anti-mouse HRP antibody in WB Blocking Buffer according to manufacturer instruction (e.g. CST Anti mouse IgG HRP-linked Ab, #7076, 1:3000). […] The membranes are developed using standard chemo luminescence (ECL) detection systems following imaging with Licor or Viber devices. […]

PDL-1 = experiment: Western blot of PDL-1 in CaSki cells; assay type: cell-based, human; conditions: 4 and 8 hours, dose dependent
Method: 24 h after seeding, cells were treated with VSP035, cycloheximide (CHX) and/or MG132 protasome inhibitor as indicated. Cells were harvested for analysis for BY WB. […] In particular, faster migrating band abundancy was regulated by proteasome inhibitor MG132 and the protein was destabilized in the presence of CHX.

4E-BP1 = experiment: Western blot of 4E-BP1 phosphorylation in CaSki cells; assay type: cell-based, human; conditions: 6 h, 10 μM & 5 μM
Excerpt: Thus, clearly distinguishing downstream-effects in comparison to a general TOR Kinase inhibition.

SMILES	% Inhibition of SARV-CoV-2 virus activity (SARS-CoV-2 [1]) [%]	inhibitory activity against p38, JNK1, ERK1/2, PKC, or Src-like kinases [2]	AUC higher than that of VSP034 [3] [fold]	inhibition (SARS-CoV-2 [4]) [%]	antiviral activity as single agent (SARS-CoV-2 [5])	HPV 16 E7 protein degradation time course (western blot) (HPV16 E7 protein)	regulation of PDL-1 (western blot) (PDL-1)	phosphorylation state of 4E-BP1 (4E-BP1)
Nc1ncnc2n[nH]c(Nc3ccc(F)cc3)c12 [CGP57380]	17.71	no inhibitory activity						
CN1CCC(CN2C(=O)c3ccccc3[C@H](C(=O)Nc3cccc(N4CCN(C)CC4)c3)[C@H]2c2ccc(C(F)(F)F)cc2)CC1 [VSP035, (3S,4S)—N-[3-(4-methylpiperazin-1-yl)phenyl]-2-[(1-methylpiperidin-4-yl)methyl]-1-oxo-3-[4-(trifluoromethyl)phenyl]-1,2,3,4-tetrahydroisoquinoline-4-carboxamide]			4	72±7.7	Robust antiviral activities	stable e7 reduction	valid pdl-1 destabilizer	dose dependent hypophosphorylation
